For data set [1], the target named is Histamine H3 receptor (Homo sapiens) (UniProt Q9Y5N1). Put plainly: Displacement of [3H]R-alpha-methylhistamine from human histamine H3 receptor expressed in CHO Flp-In cells by liquid scintillation counting. It is filed as cell-based. In general terms: Displacement assays read how much labelled ligand stays bound in the presence of the test substance.
The target in data set [2] is Histamine H1 receptor (Homo sapiens, UniProt P35367). Put plainly: Displacement of [3H]pyrilamine from human histamine H1 receptor expressed in CHO Flp-In cells by liquid scintillation counting. In kind it is cell-based.
For data set [3], the target named is T1, 5-hydroxytryptamine receptor 2A (Homo sapiens, UniProt P28223). Put plainly: Displacement of [3H]ketanserin from human 5HT2A receptor expressed in HEK293 Flp-In cells by liquid scintillation counting. It is filed as cell-based.
Data set [4] in a line: in vitro. The settings on record: human, liver microsomes.
In data set [5] the target is Cytochrome P450 2D6 (Homo sapiens, UniProt P10635). Put plainly: Inhibition of recombinant CYP2D6 in presence of NADPH generating system.
Data set [6] is described as follows: Elimination half life in human at 50 mg, po. The settings on record: in vivo, read-out: beta t1/2 (converted). It is filed as ADME, organism-based.
The nature of data set [7]: Half life in human. The settings on record: in vivo. In kind it is ADME, organism-based.
Data set [8] deals with Rattus norvegicus. Put plainly: Effect on sleep-awake pattern in CD IGS rat model of insomnia assessed as latency to 20 secs REM sleep at 60 mg/kg, po by EEG/EMG study relative to vehicle control. It is filed as functional.
Data set [9] has as its system Rattus norvegicus. Put plainly: Increase in NREM sleep in CD IGS rat model of insomnia at 60 mg/kg, po after 4 hrs by EEG/EMG study relative to vehicle control. It is filed as functional.
The target in data set [10] is T1, 5-hydroxytryptamine receptor 2A. Put plainly: Displacement of [3H]ketanserin from human 5HT2A receptor expressed in HEK293 Flp-In cells at 10 uM by liquid scintillation counting. It is filed as cell-based.
Data set [11] concerns Rattus norvegicus. Put plainly: Effect on sleep-awake pattern in CD IGS rat model of insomnia assessed as latency to 1 min NREM sleep at 60 mg/kg, po by EEG/EMG study relative to vehicle control. In kind it is functional.
The test system of data set [12] is Rattus norvegicus. Put plainly: Increase in REM sleep in CD IGS rat model of insomnia at 60 mg/kg, po after 4 hrs by EEG/EMG study relative to vehicle control. In kind it is functional.
The target in data set [13] is T2, Muscarinic acetylcholine receptor M1 (Homo sapiens, UniProt P11229).
T2 sequence (P11229 whole entry): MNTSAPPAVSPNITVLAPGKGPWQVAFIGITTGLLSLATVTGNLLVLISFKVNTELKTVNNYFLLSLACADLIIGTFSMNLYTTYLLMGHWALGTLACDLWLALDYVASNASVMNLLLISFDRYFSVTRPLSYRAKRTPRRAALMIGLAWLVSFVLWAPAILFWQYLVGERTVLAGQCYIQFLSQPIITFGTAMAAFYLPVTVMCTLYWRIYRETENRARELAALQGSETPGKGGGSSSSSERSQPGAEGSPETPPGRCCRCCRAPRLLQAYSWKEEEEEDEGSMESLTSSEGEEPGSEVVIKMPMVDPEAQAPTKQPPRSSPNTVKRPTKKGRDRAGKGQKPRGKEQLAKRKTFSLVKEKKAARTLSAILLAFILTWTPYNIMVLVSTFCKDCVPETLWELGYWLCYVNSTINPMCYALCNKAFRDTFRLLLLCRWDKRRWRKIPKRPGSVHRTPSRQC
Put plainly: Displacement of [3H]N-methylscopolamine from human muscarinic M1 receptor expressed in CHO Flp-In cells by liquid scintillation counting. It is filed as cell-based.

In data set [14] the target is Cytochrome P450 3A4 (Homo sapiens, UniProt P08684). Put plainly: Inhibition of recombinant CYP3A4 in presence of NADPH generating system. In kind it is ADME. The conditions noted are these: recombinant enzyme.
Data set [15] deals with Voltage-gated inwardly rectifying potassium channel KCNH2 (Homo sapiens, UniProt Q12809). Put plainly: Inhibition of human ERG expressed in HEK293 cells by patch-clamp technique. A general note: Patch clamp records ionic current or voltage across a cell membrane.
In data set [16] the test system is Cynomolgus monkey. Put plainly: Cardiotoxicity in conscious cynomolgus monkey assessed as decrease in heart rate up to 200 mg/kg administered as escalated dose with 1 week washout period between doses by telemetry study. It is filed as toxicity, organism-based, Macaca fascicularis. On the set-up: dose 200 mg/kg; scale not given: the % may be the effect or the level left. The settings on record: in vivo, 168 h.

Data set [17] relates to Rattus norvegicus. Put plainly: Effect on sleep-awake pattern in CD IGS rat model of insomnia assessed as latency to 1 min NREM sleep at 30 mg/kg, po by EEG/EMG study relative to vehicle control. In kind it is functional.
Data set [18] deals with Rattus norvegicus. Put plainly: Increase in NREM sleep in CD IGS rat model of insomnia at 30 mg/kg, po after 4 hrs by EEG/EMG study relative to vehicle control. In kind it is functional.
For data set [19], the system named is Rattus norvegicus. Put plainly: Increase in REM sleep in CD IGS rat model of insomnia at 30 mg/kg, po after 4 hrs by EEG/EMG study relative to vehicle control. It is filed as functional.
Data set [20] is described as follows: Drug level in rat brain at 30 mg/kg after 4 hrs by LC-MS-MS analysis. In kind it is ADME, organism-based. On the set-up: dose 30 mg/kg. The settings on record: read-out: Drug uptake.
A short description of data set [21]: Plasma concentration in rat at 30 mg/kg, po after 1 hr.
The nature of data set [22]: Systemic clearance in rat by LC-MS-MS analysis. The conditions noted are these: human, in vivo.
Data set [23] has as its system Rattus norvegicus. Put plainly: Effect on sleep-awake pattern in CD IGS rat model of insomnia assessed as latency to 20 secs REM sleep at 30 mg/kg, po by EEG/EMG study relative to vehicle control. It is filed as functional.
Data set [24] can be described thus: Drug level in rat brain at 30 mg/kg after 1 hr by LC-MS-MS analysis. It is filed as ADME, organism-based. On the set-up: dose 30 mg/kg. The settings on record: read-out: Drug uptake.
Data set [25] in a line: in vitro. The conditions noted are these: rat, liver microsomes. Background: Liver microsomes are a subcellular fraction often used to study metabolism.
In data set [26] the target is Muscarinic acetylcholine receptor M3 (Homo sapiens, UniProt P20309). Put plainly: Displacement of [3H]N-methylscopolamine from human muscarinic M3 receptor expressed in CHO Flp-In cells by liquid scintillation counting. It is filed as cell-based.

Data on ten compounds can be found in ChEMBL document CHEMBL1153519, “Characterization of novel selective H1-antihistamines for clinical evaluation in the treatment of insomnia” (J Med Chem, 2009).

pIC50, pKi: −log10 of the molar value. Calls of active or inactive are those of the source. The calls are words filed in the database; no cut-off is given here.

Histamine H1 receptor, sequence (P35367 whole entry): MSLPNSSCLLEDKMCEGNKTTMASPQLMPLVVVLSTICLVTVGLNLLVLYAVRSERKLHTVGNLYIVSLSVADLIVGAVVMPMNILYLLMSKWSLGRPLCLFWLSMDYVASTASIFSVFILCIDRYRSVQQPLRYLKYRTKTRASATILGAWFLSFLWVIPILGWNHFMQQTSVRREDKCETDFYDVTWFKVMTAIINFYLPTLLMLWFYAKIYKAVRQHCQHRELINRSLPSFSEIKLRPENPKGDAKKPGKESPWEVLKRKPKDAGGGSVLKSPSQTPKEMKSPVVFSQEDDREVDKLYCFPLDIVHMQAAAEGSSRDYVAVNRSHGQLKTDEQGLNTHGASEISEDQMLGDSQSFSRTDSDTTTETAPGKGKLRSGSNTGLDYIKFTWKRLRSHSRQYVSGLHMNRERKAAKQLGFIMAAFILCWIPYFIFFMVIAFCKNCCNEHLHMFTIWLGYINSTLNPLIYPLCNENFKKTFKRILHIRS
T1 sequence (P28223 whole entry): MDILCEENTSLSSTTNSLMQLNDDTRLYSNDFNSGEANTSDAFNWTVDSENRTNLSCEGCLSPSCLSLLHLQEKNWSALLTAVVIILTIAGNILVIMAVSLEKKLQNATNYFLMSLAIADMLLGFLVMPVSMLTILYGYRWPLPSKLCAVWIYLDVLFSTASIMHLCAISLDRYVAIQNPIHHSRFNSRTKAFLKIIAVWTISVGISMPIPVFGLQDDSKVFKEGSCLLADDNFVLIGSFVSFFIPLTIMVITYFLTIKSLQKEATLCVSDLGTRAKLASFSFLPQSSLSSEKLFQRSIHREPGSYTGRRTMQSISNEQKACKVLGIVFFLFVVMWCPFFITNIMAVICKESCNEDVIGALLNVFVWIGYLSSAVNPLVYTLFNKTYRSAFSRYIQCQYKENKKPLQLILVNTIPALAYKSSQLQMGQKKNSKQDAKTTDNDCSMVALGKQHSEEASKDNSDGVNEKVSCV
Cytochrome P450 2D6, sequence (P10635 whole entry): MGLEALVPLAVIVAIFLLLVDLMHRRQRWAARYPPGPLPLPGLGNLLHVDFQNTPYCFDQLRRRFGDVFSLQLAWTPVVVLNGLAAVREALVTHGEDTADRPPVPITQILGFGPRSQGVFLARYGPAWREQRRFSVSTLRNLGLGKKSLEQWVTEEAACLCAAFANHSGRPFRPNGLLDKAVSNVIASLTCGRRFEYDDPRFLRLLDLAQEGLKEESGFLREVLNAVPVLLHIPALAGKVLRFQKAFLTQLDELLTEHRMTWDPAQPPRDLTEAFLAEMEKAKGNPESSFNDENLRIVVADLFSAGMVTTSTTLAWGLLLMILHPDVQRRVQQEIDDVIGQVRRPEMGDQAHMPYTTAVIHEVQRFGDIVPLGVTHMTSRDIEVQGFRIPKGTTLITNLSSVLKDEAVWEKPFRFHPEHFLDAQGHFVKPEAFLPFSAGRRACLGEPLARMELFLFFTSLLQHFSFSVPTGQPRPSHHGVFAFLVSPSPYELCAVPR
Histamine H3 receptor (Homo sapiens), sequence (Q9Y5N1 whole entry): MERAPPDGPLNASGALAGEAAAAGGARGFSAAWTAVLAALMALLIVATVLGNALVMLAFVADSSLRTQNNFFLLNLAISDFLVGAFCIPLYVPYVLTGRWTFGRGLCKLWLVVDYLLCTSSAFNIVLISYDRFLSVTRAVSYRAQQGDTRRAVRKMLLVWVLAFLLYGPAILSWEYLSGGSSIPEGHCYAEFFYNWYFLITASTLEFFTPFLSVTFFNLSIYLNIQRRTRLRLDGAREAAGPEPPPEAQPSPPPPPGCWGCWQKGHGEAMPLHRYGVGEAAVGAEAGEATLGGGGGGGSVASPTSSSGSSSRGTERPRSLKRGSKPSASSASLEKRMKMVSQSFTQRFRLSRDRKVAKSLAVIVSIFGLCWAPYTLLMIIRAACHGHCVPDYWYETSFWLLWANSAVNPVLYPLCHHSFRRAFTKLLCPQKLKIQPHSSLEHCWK
Voltage-gated inwardly rectifying potassium channel KCNH2, sequence (Q12809 whole entry): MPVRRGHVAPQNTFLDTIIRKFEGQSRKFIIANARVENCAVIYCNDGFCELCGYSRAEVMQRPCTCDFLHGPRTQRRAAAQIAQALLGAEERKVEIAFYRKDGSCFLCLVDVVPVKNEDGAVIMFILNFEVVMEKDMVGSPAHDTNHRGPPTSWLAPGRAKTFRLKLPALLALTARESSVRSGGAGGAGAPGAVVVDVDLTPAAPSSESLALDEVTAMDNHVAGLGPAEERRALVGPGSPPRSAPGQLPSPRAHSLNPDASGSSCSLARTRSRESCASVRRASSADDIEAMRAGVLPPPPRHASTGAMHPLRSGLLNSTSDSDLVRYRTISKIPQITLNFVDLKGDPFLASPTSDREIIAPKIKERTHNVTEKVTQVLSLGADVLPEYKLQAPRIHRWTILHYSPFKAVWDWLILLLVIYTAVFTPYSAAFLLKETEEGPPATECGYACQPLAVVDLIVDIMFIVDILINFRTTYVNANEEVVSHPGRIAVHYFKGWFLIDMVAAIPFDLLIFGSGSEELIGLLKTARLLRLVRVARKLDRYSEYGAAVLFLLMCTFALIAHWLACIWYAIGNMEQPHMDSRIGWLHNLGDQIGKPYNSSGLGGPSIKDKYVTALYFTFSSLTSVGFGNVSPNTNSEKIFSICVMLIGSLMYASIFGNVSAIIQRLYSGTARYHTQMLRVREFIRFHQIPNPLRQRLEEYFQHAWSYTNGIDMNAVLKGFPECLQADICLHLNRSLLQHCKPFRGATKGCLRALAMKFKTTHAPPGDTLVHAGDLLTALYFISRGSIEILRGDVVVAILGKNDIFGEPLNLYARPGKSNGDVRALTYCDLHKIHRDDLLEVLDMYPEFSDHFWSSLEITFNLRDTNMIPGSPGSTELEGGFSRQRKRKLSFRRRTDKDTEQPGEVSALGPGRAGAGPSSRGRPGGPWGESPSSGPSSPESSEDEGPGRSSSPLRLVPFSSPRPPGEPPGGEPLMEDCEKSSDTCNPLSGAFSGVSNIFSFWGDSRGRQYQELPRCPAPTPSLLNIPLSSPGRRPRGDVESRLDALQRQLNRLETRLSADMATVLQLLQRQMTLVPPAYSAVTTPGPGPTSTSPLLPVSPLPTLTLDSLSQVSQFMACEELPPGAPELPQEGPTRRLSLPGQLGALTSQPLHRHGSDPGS
Cytochrome P450 3A4, sequence (P08684 whole entry): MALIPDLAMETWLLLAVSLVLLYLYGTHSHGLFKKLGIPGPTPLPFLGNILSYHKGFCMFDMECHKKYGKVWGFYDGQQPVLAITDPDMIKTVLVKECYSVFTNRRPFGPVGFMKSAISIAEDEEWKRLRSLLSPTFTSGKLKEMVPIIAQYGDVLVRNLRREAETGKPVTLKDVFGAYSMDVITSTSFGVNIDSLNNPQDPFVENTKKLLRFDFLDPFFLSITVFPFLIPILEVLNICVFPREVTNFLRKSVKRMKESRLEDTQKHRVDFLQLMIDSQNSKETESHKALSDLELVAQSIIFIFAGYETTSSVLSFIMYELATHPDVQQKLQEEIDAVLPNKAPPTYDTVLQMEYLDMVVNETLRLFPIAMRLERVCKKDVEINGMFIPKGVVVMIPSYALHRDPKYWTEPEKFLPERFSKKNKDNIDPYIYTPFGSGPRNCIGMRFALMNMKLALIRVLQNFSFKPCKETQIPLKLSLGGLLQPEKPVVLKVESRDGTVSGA
Muscarinic acetylcholine receptor M3, sequence (P20309 whole entry): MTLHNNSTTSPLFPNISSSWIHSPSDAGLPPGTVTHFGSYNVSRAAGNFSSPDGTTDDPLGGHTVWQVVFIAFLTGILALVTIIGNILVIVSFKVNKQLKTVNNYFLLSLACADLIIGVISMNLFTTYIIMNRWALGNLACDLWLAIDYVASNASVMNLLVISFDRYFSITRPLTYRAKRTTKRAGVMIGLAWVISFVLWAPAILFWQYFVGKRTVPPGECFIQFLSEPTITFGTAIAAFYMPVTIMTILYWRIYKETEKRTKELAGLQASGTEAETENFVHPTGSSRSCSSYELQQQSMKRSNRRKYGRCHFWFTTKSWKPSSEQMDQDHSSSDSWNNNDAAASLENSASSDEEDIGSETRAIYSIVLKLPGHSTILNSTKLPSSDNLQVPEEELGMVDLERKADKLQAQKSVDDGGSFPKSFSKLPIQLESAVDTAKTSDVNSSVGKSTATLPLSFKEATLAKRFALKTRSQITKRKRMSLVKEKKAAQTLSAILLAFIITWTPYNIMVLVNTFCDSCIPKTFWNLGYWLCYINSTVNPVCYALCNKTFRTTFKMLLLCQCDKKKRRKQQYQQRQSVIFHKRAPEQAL

In the case of `CN(C)CCC1=C(Cc2ccc(F)cc2)c2ccccc2C1`, the outcome in data set [1] was inactive. The pKi – broadly, the negative decadic logarithm of the Ki, by convention in mol/L – in data set [2] is 9.22; in [3], 6.85. Moreover, the CLhep predicted at 1 h, 1 µM in [4] is 13 mL/min/kg. In addition, the pIC50 (commonly the IC50 on a negative log10 scale, so that one unit is a factor of ten) in data set [5] is 6.52.

Turning to `CC(C1=C(CCN(C)C)Cc2ccccc21)c1ccccn1` (racemic), the half-life is 18 h in data set [6] and 5 h in data set [7].

Take `C[C@H](C1=C(CCN(C)C)Cc2ccccc21)c1cnccn1`: the Activity is 104% in data set [8]; 145% in [9]; 32% in data set [10]; 109% in [11]; 129% in [12]. Besides, the outcome in data set [1] was inactive.

Turning to `C[C@H](C1=C(CCN(C)C)Cc2ccccc21)c1ccccn1`, the Activity is 136% in data set [8]; 132% in data set [9]; 33% in data set [10]; 134% in data set [11]; 126% in data set [12]. The pKi is 5.62 in data set [13] and 9.40 in [2]. In data set [1], the outcome was inactive. Further, the “inhibition (INH)” value in data set [14] is listed as “Not Active”. Besides, the pIC50 was 6.05 in data set [15] and 4.49 in data set [5]. The CLhep predicted at 1 h, 1 µM in data set [4] was 7 mL/min/kg.

Turning to `C[C@@H](c1ccccn1)c1c(CCN(C)C)sc2ccccc12`, the pKi in data set [13] was 5.28; in data set [2], 8.40. For the same compound, the Activity in data set [16] is 16%; in [17] it was 124%; in data set [18] it was 142%; in [19] it was 167%; in data set [10], 31%; in data set [23], 138%. For the same compound, the outcome in [1] was inactive. In data set [20], the concentration at 4 h amounted to 23 ng/mL. Further, the values for the concentration at 1 h in data set [21] and in data set [24] were 4 ng/mL and 29 ng/mL, respectively. Moreover, the pIC50 in [15] was 5.85; in data set [5], 4.55. Also, the clearance (usually the rate of elimination divided by the concentration) in data set [22] was 5.2 mL/min/kg. Further, in data set [4], the CLhep predicted at 1 h, 1 µM was 10 mL/min/kg. In addition, in data set [25], the CLint scaled (in general, a measure of how fast metabolising enzymes remove a compound, apart from limits set by blood flow) at 1 h, 1 µM came out at 2300 mL/min/kg.

For the compound `C[C@@H](c1ccccn1)c1c(CCN(C)C)oc2ccccc12`, the pKi in data set [26] is 7.12; in data set [13], 6.49; in data set [2] it was 9.05. In [1], the result was inactive. In [10], this compound gave an Activity of 62%. Also, the CLhep predicted at 1 h, 1 µM in data set [4] was 10 mL/min/kg.

On to `CN(C)CCc1sc2ccccc2c1Cc1ccc(F)cc1`, for which the pKi was 5.70 in data set [13], 7.96 in [2] and 7.05 in [3]. Besides, the result in data set [1] was inactive. Further, in [4], the CLhep predicted at 1 h, 1 µM is 16 mL/min/kg. In addition, in data set [5], the pIC50 is 6.70.

Take `CN(C)CCC1=C(Cc2cnccn2)c2ccccc2C1`: the Activity in data set [8] worked out at 92%; in data set [9], 159%; in [11] it was 79%; in data set [12], 113%. Moreover, the result in [1] was inactive. Further, the pKi in data set [3] is 6.22.

In the case of `Cc1ccc(-c2nc3ccc(C)cn3c2CC(=O)N(C)C)cc1` [ZOLPIDEM], the Activity turned out to be 18% in data set [17], 220% in data set [18], 42% in [19] and 199% in data set [23].

Turning to `CN(C)CCc1sc2ccccc2c1Cc1cnccn1`, in data set [1], the outcome was inactive. In data set [2], this compound showed a pKi of 7.12.
